{"source": "patent US11000033B2", "about": "“Ketone or oxime compound, and herbicide” (NISSAN CHEMICAL CORPORATION, priority 2014, dated 2021)", "assay_type_in_all_cases": "in vivo", "key": {"[1]": {"tested_on": "Scirpus juncoides", "assay": "Test Example 1: herbicidal activity, application before weed generation in submerged conditions (symbol B)", "settings": "application herbicide amount 320 g/ha", "method_in_brief": "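Compound emulsion was diluted to a set herbicide amount and applied to the water surface on the sowing day, into submerged (4 cm) alluvial-soil pots sown with mixed weed seeds and transplanted 2.5-leaf rice. Pots were held in a 25–30 °C greenhouse, and weeds were scored 0–5 by herbicidal ratio after 3 weeks.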"}, "[2]": {"tested_on": "Leptochloa chinensis", "assay": "Test Example 3: herbicidal effect by foliage application, Wagner pot (symbol D)", "settings": "application herbicide amount 320 g/ha", "method_in_brief": "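The compound, formulated as an emulsion and diluted with water to a predetermined rate, is applied uniformly to leaves of two-week-old seedlings growing in submerged alluvial soil at 25–30 °C. Rice is included. Each plant is assessed 3 weeks later using defined criteria.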"}, "[3]": {"tested_on": "Setaria viridis", "assay": "Test Example 4: herbicidal effect by soil treatment (symbol G)", "settings": "application herbicide amount 320 g/ha", "method_in_brief": "(§1)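 Seeds were sown in sterilized diluvial soil, covered with about 1.5 cm of soil, and the soil surface was sprayed with a water-diluted emulsion of the compound at a predetermined rate. Plants grew in a greenhouse at 25° C. to 30° C.; effects were scored visually 3 weeks after application.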"}, "[4]": {"tested_on": "Avena fatua", "assay": "Test Example 4: herbicidal effect by soil treatment (symbol I)", "settings": "application herbicide amount 320 g/ha", "method_in_brief": "as §1"}, "[5]": {"tested_on": "Apera spica-venti", "assay": "Test Example 4: herbicidal effect by soil treatment (symbol L)", "settings": "application herbicide amount 320 g/ha", "method_in_brief": "as §1"}, "[6]": {"tested_on": "Amaranthus retroflexus", "assay": "Test Example 4: herbicidal effect by soil treatment (symbol N)", "settings": "application herbicide amount 320 g/ha", "method_in_brief": "as §1"}, "[7]": {"tested_on": "Galium spurium", "assay": "Test Example 4: herbicidal effect by soil treatment (symbol Q)", "settings": "application herbicide amount 320 g/ha", "method_in_brief": "as §1"}, "[8]": {"tested_on": "soybean", "assay": "Test Example 4: effect on crop by soil treatment (symbol d)", "settings": "application herbicide amount 320 g/ha", "method_in_brief": "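Steps: fill box with sterilized diluvial soil; sow seed spot-like; cover with ~1.5 cm soil; grow in greenhouse (25° C. to 30° C.).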"}, "[9]": {"tested_on": "Digitaria ciliaris", "assay": "Test Example 5: herbicidal effect by foliage application, plastic box (symbol F)", "settings": "320 g/ha, 3 weeks after application", "method_in_brief": "(§2)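 Seeds were sown in sterilized diluvial soil, covered with about 1.5 cm of soil and grown 14 days in a greenhouse at 25° C. to 30° C. An emulsifiable formulation diluted in water to a set rate was sprayed over foliage, and injury was scored 3 weeks later.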"}, "[10]": {"tested_on": "Echinochloa crus-galli var. crus-galli", "assay": "Test Example 5: herbicidal effect by foliage application, plastic box (symbol H)", "settings": "320 g/ha, 3 weeks after application", "method_in_brief": "as §2"}, "[11]": {"tested_on": "Avena fatua", "assay": "Test Example 5: herbicidal effect by foliage application, plastic box (symbol I)", "settings": "320 g/ha, 3 weeks after application", "method_in_brief": "as §2"}, "[12]": {"tested_on": "Apera spica-venti", "assay": "Test Example 5: herbicidal effect by foliage application, plastic box (symbol L)", "settings": "320 g/ha, 3 weeks after application", "method_in_brief": "as §2"}, "[13]": {"tested_on": "Abutilon theophrasti", "assay": "Test Example 5: herbicidal effect by foliage application, plastic box (symbol M)", "settings": "320 g/ha, 3 weeks after application", "method_in_brief": "as §2"}, "[14]": {"tested_on": "Chenopodium album", "assay": "Test Example 5: herbicidal effect by foliage application, plastic box (symbol O)", "settings": "320 g/ha, 3 weeks after application", "method_in_brief": "as §2"}, "[15]": {"tested_on": "Stellaria media", "assay": "Test Example 5: herbicidal effect by foliage application, plastic box (symbol P)", "settings": "320 g/ha, 3 weeks after application", "method_in_brief": "as §2"}, "[16]": {"tested_on": "beet", "assay": "Test Example 5: effect on crop by foliage application, plastic box (symbol f)", "settings": "320 g/ha, 3 weeks after application", "method_in_brief": "(§3)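 Plants were raised from seed in a greenhouse (25° C. to 30° C.) after sowing in a plastic box of sterilized diluvial soil.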"}, "[17]": {"tested_on": "Veronica persica", "assay": "Test Example 5: herbicidal effect by foliage application, plastic box (symbol R)", "settings": "320 g/ha, 3 weeks after application", "method_in_brief": "as §2"}, "[18]": {"tested_on": "rapeseed", "assay": "Test Example 5: effect on crop by foliage application, plastic box (symbol g)", "settings": "320 g/ha, 3 weeks after application", "method_in_brief": "as §3"}}}
{"smiles": "CCc1cc(-c2ccc(Cl)cc2)cc(C)c1C1=C(O)CC(CC(C)=NOC)C1=O", "note": "(stereo not drawn) [6-066]", "values": [{"measurement": "Herbicidal effect grade, B: Scirpus juncoides", "setting": "[1]", "value": "3 (Herbicidal ratio of 40% or higher and lower than 70%)"}, {"measurement": "herbicidal effect on D (Leptochloa chinensis), grade 0-5", "setting": "[2]", "value": "5 (Herbicidal ratio of 90% or more (almost completely withered))"}, {"measurement": "G: Setaria viridis, herbicidal effect grade", "setting": "[3]", "value": "5 (Herbicidal ratio of 90% or more (almost completely withered))"}, {"measurement": "I: Avena fatua, herbicidal effect grade", "setting": "[4]", "value": "5 (Herbicidal ratio of 90% or more (almost completely withered))"}, {"measurement": "L: Apera spica-venti, herbicidal effect grade", "setting": "[5]", "value": "5 (Herbicidal ratio of 90% or more (almost completely withered))"}, {"measurement": "N: Amaranthus retroflexus, herbicidal effect grade", "setting": "[6]", "value": "2 (Herbicidal ratio of 20% or higher and lower than 40%)"}, {"measurement": "Q: Galium spurium, herbicidal effect grade", "setting": "[7]", "value": "0 (Herbicidal ratio of 5% or lower (almost no effect))"}, {"measurement": "d: soybean, effect on crop grade", "setting": "[8]", "value": "0 (Herbicidal ratio of 5% or lower (almost no effect))"}, {"measurement": "F: Digitaria ciliaris, herbicidal effect (criteria of Test Example 1)", "setting": "[9]", "value": "5 (Herbicidal ratio of 90% or more (almost completely withered))"}, {"measurement": "H: Echinochloa crus-galli var. crus-galli, herbicidal effect (criteria of Test Example 1)", "setting": "[10]", "value": "5 (Herbicidal ratio of 90% or more (almost completely withered))"}, {"measurement": "I: Avena fatua, herbicidal effect (criteria of Test Example 1)", "setting": "[11]", "value": "5 (Herbicidal ratio of 90% or more (almost completely withered))"}, {"measurement": "L: Apera spica-venti, herbicidal effect (criteria of Test Example 1)", "setting": "[12]", "value": "5 (Herbicidal ratio of 90% or more (almost completely withered))"}, {"measurement": "M: Abutilon theophrasti, herbicidal effect (criteria of Test Example 1)", "setting": "[13]", "value": "3 (Herbicidal ratio of 40% or higher and lower than 70%)"}, {"measurement": "O: Chenopodium album, herbicidal effect (criteria of Test Example 1)", "setting": "[14]", "value": "1 (Herbicidal ratio of 5% or higher and lower than 20%)"}, {"measurement": "P: Stellaria media, herbicidal effect (criteria of Test Example 1)", "setting": "[15]", "value": "3 (Herbicidal ratio of 40% or higher and lower than 70%)"}, {"measurement": "f: beet, effect on crop (criteria of Test Example 1)", "setting": "[16]", "value": "0 (Herbicidal ratio of 5% or lower (almost no effect))"}]}
{"smiles": "CON=C(C)CC1CC(O)=C(c2c(C)cc(-c3cc(Cl)cc(Cl)c3)cc2C)C1=O", "note": "(stereo not drawn) [6-087]", "values": [{"measurement": "Herbicidal effect grade, B: Scirpus juncoides", "setting": "[1]", "value": "0 (Herbicidal ratio of 5% or lower (almost no effect))"}, {"measurement": "herbicidal effect on D (Leptochloa chinensis), grade 0-5", "setting": "[2]", "value": "5 (Herbicidal ratio of 90% or more (almost completely withered))"}, {"measurement": "Herbicidal effect grade, G: Setaria viridis", "setting": "[3]", "value": "5 (Herbicidal ratio of 90% or more (almost completely withered))"}, {"measurement": "Herbicidal effect grade, I: Avena fatua", "setting": "[4]", "value": "0 (Herbicidal ratio of 5% or lower (almost no effect))"}, {"measurement": "Herbicidal effect grade, N: Amaranthus retroflexus", "setting": "[6]", "value": "0 (Herbicidal ratio of 5% or lower (almost no effect))"}, {"measurement": "Herbicidal effect grade, Q: Galium spurium", "setting": "[7]", "value": "0 (Herbicidal ratio of 5% or lower (almost no effect))"}, {"measurement": "Effect on crop grade, d: soybean", "setting": "[8]", "value": "3 (Herbicidal ratio of 40% or higher and lower than 70%)"}, {"measurement": "F: Digitaria ciliaris, herbicidal effect (criteria of Test Example 1)", "setting": "[9]", "value": "5 (Herbicidal ratio of 90% or more (almost completely withered))"}, {"measurement": "H: Echinochloa crus-galli var. crus-galli, herbicidal effect (criteria of Test Example 1)", "setting": "[10]", "value": "5 (Herbicidal ratio of 90% or more (almost completely withered))"}, {"measurement": "I: Avena fatua, herbicidal effect (criteria of Test Example 1)", "setting": "[11]", "value": "0 (Herbicidal ratio of 5% or lower (almost no effect))"}, {"measurement": "L: Apera spica-venti, herbicidal effect (criteria of Test Example 1)", "setting": "[12]", "value": "3 (Herbicidal ratio of 40% or higher and lower than 70%)"}, {"measurement": "M: Abutilon theophrasti, herbicidal effect (criteria of Test Example 1)", "setting": "[13]", "value": "0 (Herbicidal ratio of 5% or lower (almost no effect))"}, {"measurement": "O: Chenopodium album, herbicidal effect (criteria of Test Example 1)", "setting": "[14]", "value": "0 (Herbicidal ratio of 5% or lower (almost no effect))"}, {"measurement": "P: Stellaria media, herbicidal effect (criteria of Test Example 1)", "setting": "[15]", "value": "1 (Herbicidal ratio of 5% or higher and lower than 20%)"}, {"measurement": "R: Veronica persica, herbicidal effect (criteria of Test Example 1)", "setting": "[17]", "value": "4 (Herbicidal ratio of 70% or higher and lower than 90%)"}, {"measurement": "f: beet, effect on crop (criteria of Test Example 1)", "setting": "[16]", "value": "0 (Herbicidal ratio of 5% or lower (almost no effect))"}, {"measurement": "g: rapeseed, effect on crop (criteria of Test Example 1)", "setting": "[18]", "value": "4 (Herbicidal ratio of 70% or higher and lower than 90%)"}]}
